# Read-outs that look alike come from different tables or passages of the source.
# How the values were obtained:
# [1] = molecular target: GABA-A receptor; test: 35S-TBPS binding assay (GABAA receptor binding ability test); design: species or system Sprague-Dawley rat; conditions: rat cerebral cortex cell membrane, 5 μM GABA, 2 nM 35S-TBPS; read-out: 35S-TBPS bindng test: IC50 on inhibiting the TBPS binding activity
# Method: 1.2 Experimental Procedures 1.2.1 Extraction of Cerebral Cortex Cell Membrane:
# 1. The cerebral cortex of male Sprague-Dawley rat was isolated.
# 2. A pre-chilled 0.32 M sucrose solution (one tablet of protease inhibitor was added per 100 ml) was added to the cerebral cortex (the volume of sucrose solution was 10 times the volume of the cerebral cortex). The mixture was crushed with a 50 mL glass tissue homogenizer in batches and mixed well.
# 3. The mixture was centrifuged at 1500 g, 4° C. for 10 minutes, and the supernatant was collected.
# 4. The mixture was centrifuged at 20000 g, 4° C. for 30 minutes, and the supernatant was discarded.
# 5. The precipitate was resuspended with the pre-chilled phosphate buffer saline (PBS) (one tablet of protease inhibitor was added per 100 ml). An average of 4 ml of PBS was added per rat, and the mixture was mixed well by a glass tissue homogenizer.
# 6. The mixture was centrifuged at 10000 g, 4° C. for 10 minutes, and the supernatant was discarded.
# 7. Steps 5 and 6 were repeated three times.
# 8. Finally, the precipitate was resuspended with 4 volumes of PBS. The resulting solution was dispensed, frozen in liquid nitrogen, and stored at −80° C.
# 9. The protein concentration was measured by the bicinchoninic acid (BCA) method.
# 1.2.2 ^35S-TBPS Binding Assay
# 1. 230 μL of PBS was added to each well of a well plate with 1.1 ml volume.
# 2. 60 μL of the cerebral cortex cell membrane (5 μg/μL) solution was added to each well, and the mixture was mixed well.
# 3. The test compound (3 μL per well) was added, and the plate was incubated at 25° C. for 5 minutes. The DMSO concentration was 1%. The initial compound concentration was 1 μM, and a 3-fold dilution in gradient was carried out to obtain a total of 8 gradients and 2 replicates. 1% DMSO was used as a negative control, and 10 μM P026-2 was used as a positive control.
# 4. GABA was added at a final concentration of 5 μM, and incubated at 25° C. for 5 minutes. 1 mM GABA solution was formulated, and 1.5 μL of the solution was added to each well.
# 5. ^35S-TBPS was added at a final concentration of 2 nM. The concentration of isotope mother solution was 9.7 μM. After dilution with PBS for 100 times, 6 μL of the diluted isotope solution was added to each well.
# 6. The plate was incubated at 4° C. for 20 hours.
# 7. The FilterMate GF/C plate was pre-treated with 0.5% PEI, and incubated at 4° C. for 1 hour.
# 8. The FilterMate GF/C plate was washed with Universal Harvester twice, 50 ml PBS each time.
# 9. The reaction solution was transferred to the GF/C plate, and each well was washed 4 times with 900 μL of PBS.
# 10. The washed GF/C plate was placed at 55° C. and dried for 10 minutes.
# 11. 40 μL of scintillation solution was added to each well, and the CPM value was read with TopCount.
# 1.2.3 Experimental Data Processing Method:
# In the experiment, the CPM (counts per minute) value was read with TopCount. According to the readings of the High control (DMSO) and the Low control ([…] of the positive compound) experimental groups, the […] inhibition was calculated based on the following formula: % Inhibition=100×(CPMHigh control−CPMSample)/(CPMHigh control−CPMLow control)
# The IC50 of the compound was calculated according to the following 4-parameter nonlinear logic formula: Y=Bottom+(Top−Bottom)/(1+10^((Log IC50−X)*Hill Slope)),
# wherein: • X represents the log of compound concentration, • Y represents the 0 Inhibition.
# The effect of the compound of the present invention on the TBPS binding activity was determined by the above test, and the measured IC50 values are shown in Table 1.
# [2] = Pharmacokinetic assay in Balb/c mice (plasma and brain tissue); format: in vivo; conditions: mouse, po, 5 mg/kg p.o., male Balb/c mice; for AUC(0-t): read-out: Area under curve AUC0-t; for AUC(0-inf): read-out: Area under curve AUC0-∞; for half-life: read-out: Half-life t1/2 (converted); for MRT: read-out: Mean residence time MRT; for Tmax: read-out: Peak time tmax; for Cmax: read-out: Plasma concentration Cmax
# Method: Balb/c mice were used as test animals. The pharmacokinetic behavior in mice (plasma and brain tissue) of the compounds of Examples 2, 3, 5, 6, 9, 13, 59, 60, 61, 63, 71-74, 81, 103, 130, 134, 135, 137, 138, 140, 141, 143, 145 and 146 orally administered at a dose of 5 mg/kg was studied.
# Each group had 24 male Balb/c mice. After an overnight fast, Balb/c mice were administered p.o. with the test compound at an administration dose of 5 mg/kg and an administration volume of 10 mL/kg.
# 0.2 ml of blood was taken from the heart before administration and at 0, 0.5, 1, 2, 4, 6, 8 and 24 hours after administration. The samples were stored in EDTA-K2 tubes, and centrifuged for 6 minutes at 4° C., 6000 rpm to separate the plasma. The plasma samples were stored at −80° C. The mice were sacrificed with CO2, and the whole brain tissue was taken out, weighed, placed in a 2 mL centrifuge tube and stored at −80° C.
# 1) 160 μL of acetonitrile was added to 40 μL of the plasma sample for precipitation, and then the mixture was centrifuged for 5-20 minutes at 3500×g.
# 2) 90 μL of acetonitrile containing the internal standard (100 ng/mL) was added to 30 μL of the plasma and brain homogenate samples for precipitation, and then the mixture was centrifuged for 8 minutes at 13000 rpm.
# 3) 70 μL of the treated supernatant was taken and added to 70 μL of water, and mixed by vortex for 10 minutes. 20 μL of the mixture was taken to analyze the concentration of the test compound by LC/MS/MS. LC/MS/MS analysis instrument: AB Sciex API 4000 Qtrap.
# • Liquid chromatography condition: Shimadzu LC-20AD pump. • Chromatographic column: Agilent ZORBAX™ XDB-C18 (50×2.1 mm, 3.5 μm) (note: Aglient ZORBAX™ is a kind of column used in the reverse HPLC); • Mobile phase: Eluent A was 0.10% formic acid in water, and Eluent B was acetonitrile. • Flow rate: 0.4 mL/min • Elution time: 0-4.0 minutes, the eluent is as follows:
# The main parameters of pharmacokinetics were calculated by WinNonlin 6.1.
smiles,measurement,setting,value
"CC(=O)[C@H]1[C@H]2C[C@H]2[C@H]2[C@@H]3CC[C@@H]4C[C@](C)(O)CC[C@@H]4[C@H]3CC[C@@]21C [Example 1, 1-((2R,4aS,4bR,6aS,7S,7aS,8aR,8bR,8cR,10aR)-2-Hydroxy-2,6a-dimethyloctadecahydrocyclopropa[4,5]cyclopenta[1,2-a]phenanthren-7-yl)ethan-1-one]",IC50,[1],15 nM
"C[C@@]1(O)CC[C@H]2[C@H](CC[C@@H]3[C@@H]2CC[C@@]2(C)[C@H]3[C@@H]3C[C@@H]3[C@@H]2C(=O)Cn2nccn2)C1 [Example 7, 1-((2R,4aS,4bR,6aS,7S,7aS,8aR,8bR,8cR,10aR)-2-Hydroxy-2,6a-dimethyloctadecahydrocyclopropa[4,5]cyclopenta[1,2-a]phenanthren-7-yl)-2-(2H-1,2,3-triazol-2-yl)ethan-1-one]",IC50,[1],14.7 nM
"C[C@@]1(O)CC[C@H]2[C@H](CC[C@@H]3[C@@H]2CC[C@@]2(C)[C@H]3[C@@H]3C[C@@H]3[C@@H]2C(=O)Cn2ccnn2)C1 [Example 8, 1-((2R,4aS,4bR,6aS,7S,7aS,8aR,8bR,8cR,10aR)-2-Hydroxy-2,6a-dimethyloctadecahydrocyclopropa[4,5]cyclopenta[1,2-a]phenanthren-7-yl)-2-(1H-1,2,3-triazol-1-yl)ethan-1-one]",IC50,[1],42 nM
"C[C@@]1(O)CC[C@H]2[C@H](CC[C@@H]3[C@@H]2CC[C@@]2(C)[C@H]3[C@@H]3C[C@@H]3[C@@H]2C(=O)Cn2cc(Cl)cn2)C1 [Example 18, 2-(4-Chloro-1H-pyrazol-1-yl)-1-((2R,4aS,4bR,6aS,7S,7aS,8aR,8bR,8cR,10aR)-2-hydroxy-2,6a-dimethyloctadecahydrocyclopropa[4,5]cyclopenta[1,2-a]phenanthren-7-yl)ethan-1-one]",IC50,[1],6.4 nM
"C[C@@]1(O)CC[C@H]2[C@H](CC[C@@H]3[C@@H]2CC[C@@]2(C)[C@H]3[C@@H]3C[C@@H]3[C@@H]2C(=O)Cn2cc(C#N)c(C3CC3)n2)C1 [Example 33, 3-Cyclopropyl-1-(2-((2R,4aS,4bR,6aS,7S,7aS,8aR,8bR,8cR,10aR)-2-hydroxy-2,6a-dimethyloctadecahydrocyclopropa[4,5]cyclopenta[1,2-a]phenanthren-7-yl)-2-oxoethyl)-1H-pyrazole-4-carbonitrile]",IC50,[1],18.3 nM
"C[C@@]1(O)CC[C@H]2[C@H](CC[C@@H]3[C@@H]2CC[C@@]2(C)[C@H]3[C@@H]3C[C@@H]3[C@@H]2C(=O)Cn2ncc(C#N)c2C2CC2)C1 [Example 34, 5-Cyclopropyl-1-(2-((2R,4aS,4bR,6aS,7S,7aS,8aR,8bR,8cR,10aR)-2-hydroxy-2,6a-dimethyloctadecahydrocyclopropa[4,5]cyclopenta[1,2-a]phenanthren-7-yl)-2-oxoethyl)-1H-pyrazole-4-carbonitrile]",IC50,[1],28.1 nM
"Cc1nn(CC(=O)[C@H]2[C@H]3C[C@H]3[C@H]3[C@@H]4CC[C@@H]5C[C@](C)(O)CC[C@@H]5[C@H]4CC[C@@]32C)cc1C#N [Example 37A, 1-(2-((2R,4aS,4bR,6aS,7S,7aS,8aR,8bR,8cR,10aR)-2-Hydroxy-2,6a-dimethyloctadecahydrocyclopropa[4,5]cyclopenta[1,2-a]phenanthren-7-yl)-2-oxoethyl)-3-methyl-1H-pyrazole-4-carbonitrile]",IC50,[1],15.4 nM
"Cc1c(C#N)cnn1CC(=O)[C@H]1[C@H]2C[C@H]2[C@H]2[C@@H]3CC[C@@H]4C[C@](C)(O)CC[C@@H]4[C@H]3CC[C@@]21C [Example 37B, 1-(2-((2R,4aS,4bR,6aS,7S,7aS,8aR,8bR,8cR,10aR)-2-Hydroxy-2,6a-dimethyloctadecahydrocyclopropa[4,5]cyclopenta[1,2-a]phenanthren-7-yl)-2-oxoethyl)-5-methyl-1H-pyrazole-4-carbonitrile]",IC50,[1],15.4 nM
"CC[C@@H]1C[C@H](C(=O)Cn2cc(C#N)cn2)[C@@]2(C)CC[C@H]3[C@@H](CC[C@@H]4C[C@](C)(O)CC[C@@H]43)[C@H]12 [Example 81, 1-(2-((3R,5R,8R,9R,10S,13S,14S,15R,17S)-15-Ethyl-3-hydroxy-3,13-dimethylhexadecahydro-1H-cyclopenta[a]phenanthren-17-yl)-2-oxoethyl)-1H-pyrazole-4-carbonitrile]",AUC(0-t),[2]; brain tissue,1440 ng·h/mL
same,AUC(0-inf),[2]; brain tissue,2230 ng·h/mL
same,half-life,[2]; brain tissue,5.59 h
same,MRT,[2]; brain tissue,7.97 h
same,Tmax,[2]; brain tissue,1 h
same,Cmax,[2]; brain tissue,296 ng/mL
same,AUC(0-t),[2]; plasma,4640 ng·h/mL
same,AUC(0-inf),[2]; plasma,5920 ng·h/mL
same,half-life,[2]; plasma,2.64 h
same,MRT,[2]; plasma,4.96 h
same,Tmax,[2]; plasma,1 h
same,Cmax,[2]; plasma,1150 ng/mL
"C[C@@]1(O)CC[C@H]2[C@H](CC[C@@H]3[C@@H]2CC[C@@]2(C)[C@H]3[C@@H]3C[C@@H]3[C@@H]2C(=O)Cn2cc([N+](=O)[O-])cn2)C1 [Example 103, 1-((2R,4aS,4bR,6aS,7S,7aS,8aR,8bR,8cR,10aR)-2-Hydroxy-2,6a-dimethyloctadecahydrocyclopropa[4,5]cyclopenta[1,2-a]phenanthren-7-yl)-2-(4-nitro-1H-pyrazol-1-yl)ethan-1-one]",AUC(0-t),[2]; brain tissue,1680 ng·h/mL
same,AUC(0-inf),[2]; brain tissue,1710 ng·h/mL
same,half-life,[2]; brain tissue,1.12 h
same,MRT,[2]; brain tissue,2.07 h
same,Tmax,[2]; brain tissue,1 h
same,Cmax,[2]; brain tissue,626 ng/mL
same,AUC(0-t),[2]; plasma,1030 ng·h/mL
same,AUC(0-inf),[2]; plasma,1060 ng·h/mL
same,half-life,[2]; plasma,1.19 h
same,MRT,[2]; plasma,2.12 h
same,Tmax,[2]; plasma,1 h
same,Cmax,[2]; plasma,386 ng/mL

# — US12139508B2, “Steroid derivative regulators, method for preparing the same, and uses thereof” (JIANGSU HANSOH PHARMACEUTICAL GROUP CO., LTD., priority 2018, dated 2024)
